Holding throughout (type): cell-based
For assay [1], the target named is T1, hP2X7 (Homo sapiens, UniProt Q99572).
T1 construct: expressed in transfected cells; host or cells: HEK-293, stably transfected (gift of E. Adinolfi's group, Ferrara University)
T1 sequence (Q99572 1-595): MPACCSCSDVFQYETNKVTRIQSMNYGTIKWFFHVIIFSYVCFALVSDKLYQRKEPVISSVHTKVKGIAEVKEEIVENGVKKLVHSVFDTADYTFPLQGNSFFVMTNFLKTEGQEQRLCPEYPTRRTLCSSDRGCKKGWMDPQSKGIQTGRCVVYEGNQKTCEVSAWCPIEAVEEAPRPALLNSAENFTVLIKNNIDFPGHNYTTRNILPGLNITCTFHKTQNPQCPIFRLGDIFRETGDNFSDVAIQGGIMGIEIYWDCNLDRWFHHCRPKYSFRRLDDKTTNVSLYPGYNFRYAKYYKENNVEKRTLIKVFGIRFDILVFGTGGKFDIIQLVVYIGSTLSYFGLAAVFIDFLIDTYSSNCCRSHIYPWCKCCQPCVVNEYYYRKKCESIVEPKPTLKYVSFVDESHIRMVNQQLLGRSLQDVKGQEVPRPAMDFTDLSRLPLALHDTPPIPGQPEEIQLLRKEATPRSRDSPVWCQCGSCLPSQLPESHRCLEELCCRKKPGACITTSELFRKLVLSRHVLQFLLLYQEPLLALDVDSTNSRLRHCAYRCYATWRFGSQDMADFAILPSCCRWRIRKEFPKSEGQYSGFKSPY
Nature of the assay: Membrane Potential Red (MPR) dye assay, 1321 N1 cells stably transfected with hP2X7. As for the experimental part: (§1) Astrocytoma 1321 N1 (established by Dr. Gaia Pasqualetto) and HEK-293 (kindly gifted by E. Adinolfi’s group, Ferrara University) both stably transfected with hP2X7, were used to assess the activity of the small molecules selected from the VS. Cells were maintained in DMEM:F12 (PanBiotech) supplemented with 10% FBS, 1% pen-strep, and 150 μg/mL G418 (PanBiotech).
(§2) Cells were plated as described for the YO-PRO 1 dye uptake assay. MPR dye (Molecular Devices) was prepared following the manufacturer’s protocol and diluted 1:10 in ECS-LD buffer. After washing with DPBS, cells were incubated with the dye for 30 min at 37 °C. Fluorescence changes (excitation: 525 nm; emission: 560 nm) were recorded using a Clariostar plate reader during ATP-induced membrane depolarization. Baseline fluorescence was recorded for 5 cycles, and ATP was added via an automated injector (10 μL). Membrane depolarization was quantified as the ratio of the maximal fluorescence change over baseline intensity (Δ(F max–F0)/F0)).
2 Initial screening assays to identify hit compounds. (A) The compounds were screened at 30 μM in the YO-PRO 1 dye uptake using 1321 N1 cells stably transfected with hP2X7. Compound activity was evaluated along a time of 20 min (75 s per cycle) after ATP addition (700 μM). The fluorescence intensity (FI) values of the first 10 cycles were considered for assessing their ability to inhibit hP2X7. Compound responses were normalized to the fluorescent signal recorded on 0.3% DMSO cells treated with 700 μM ATP of each plate. […] (B) Compounds screened at 10 μM using MPR using 1321 N1 cells stably transfected with hP2X7. The compound activity was evaluated for 5 min after ATP addition (15 s per cycle). The fluorescence intensity recorded in the first cycles (before reaching a plateau response) was considered for assessing the small molecule’s ability to inhibit hP2X7. Compound responses were normalized to the fluorescence signal recorded on 0.1% DMSO cells treated with 700 μM ATP of each plate. […] One-way ANOVA and Dunnet test were used for statistical analysis (****P < 0.0001), (*P < 0.02). […]

In assay [2] the target is T1, hP2X7. Nature of the assay: Membrane potential assay with the blue dye (assay optimization). The note with it: read-out: ATP EC50. The text has this: The use of two or more complementary assays for assessing P2X7 modulator activity has been previously applied to help identify false positives as macropore formation is also linked to P2X2 and P2X4. , As P2X receptors are ion channels, they are probably best studied using electrophysiology techniques such as single-cell patch clamp, but these techniques can be laborious when testing libraries of compounds.

Assay [3] concerns the target T1, hP2X7. Nature of the assay: Membrane Potential Red (MPR) dye assay, 1321 N1 cells stably transfected with hP2X7. To be noted: compound 10 μM, 700 μM ATP.
In assay [4] the target is T1, hP2X7. The experiment in a line: Membrane Potential Red (MPR) dye assay, HEK-293 cells stably transfected with hP2X7. To be noted: 10 μM, 1 mM ATP, hP2X7 HEK-293. On the procedure:
as §1, §2
4 Evaluation of compound 2 and 9 analogue activity using YO-PRO 1 and MPR assays. The activity of compound 2 (A and B) and 9 (C and D) analogues was evaluated in YO-PRO 1 (A and C) and MPR (B and D) assays. The compounds were tested at 10 μM and preincubated for either 20 (YO-PRO 1) or 30 min (MPR). The baseline was recorded for 5 cycles before ATP treatment (1 mM). Fluorescence was recorded for 25 (YO-PRO 1) or 5 min (MPR). The data were normalized by setting as 100% for the fluorescence measured from hP2X7 HEK-293 cells incubated with vehicle (0.1% DMSO) and treated with 1 mM ATP and 0% for the fluorescence recorded by the cells not treated with ATP. The data shown correspond to three independent biological replicates (3 technical replicates per experiment; error bars represent the SEM from the mean values of each biological replicate (n = 3)). The statistical analysis was performed with one-way Anova using Dunnett’s function (P**** < 0.0001; P*** < 0.0003; P** < 0.002; P* < 0.02).

Entries after “also recorded” stand apart in the source; their conditions may differ.

In the case of `Nc1ncnc2c1ncn2[C@@H]1O[C@H](COP(=O)(O)OP(=O)(O)OP(=O)(O)O)[C@@H](O)[C@H]1O` [ATP, reference compound], the EC50 in assay [1] (MPR assay, red dye, 1321 N1 hP2X7 cells, one biological replicate, read-out: ATP EC50) came to 679 µM; in assay [2], 2050 µM.

On to `O=C(NCCc1ccccc1)NC(Cc1ccc2c(c1)OCO2)Cc1ccc2c(c1)OCO2` [Compound 2], for which, in assay [3], the “activity in MPR screen, hP2X7-induced membrane depolarization” value is recorded as “active; also recorded: statistically inhibited”.

Consider `O=C(CSc1ccccc1C(=O)Nc1ccnn1Cc1cccnc1)Nc1ccc2c(c1)OCO2` [Compound 9], for which, in assay [1] (compound 10 μM, 700 μM ATP), the “statistically significant inhibition, % of control, initial MPR screen” value is listed as 65 % of control. Further, the “activity in MPR assay” value in assay [4] is given as “neither compound 9 nor its analogues significantly affected the membrane depolarization; also recorded: lack of inhibition”. Moreover, the “activity in MPR screen, hP2X7-induced membrane depolarization” value in assay [3] is “active; also recorded: statistically inhibited”.

The record behind these values is PMC12264943, “Identification of New Human P2X7 Antagonists Using Ligand- and Structure-Based Virtual Screening” (Journal of Chemical Information and Modeling, 2025).
